Measurements published in paper PMC12138978, “Mu Opioid Receptor Positive Allosteric Modulator BMS-986122 Confers Agonist-Dependent G Protein Subtype Signaling Bias” (Biochemistry, 2025).
Values joined by “and” are separate entries in the source; they are usually repeats but may differ in a detail not shown here. Identical values can stand only once. Marks after values point to notes of the source that are not given here.

Columns and labels:
[1] = system: human MOR signaling through different Gα subunits; experiment: nanoBRET assay, comparison or average across Gα subunits; type: cell-based; details: for Average maximal increase in potency (EC50) caused by BMS-986122: average over Gα subunits, 10 μM BMS-986122
[2] = molecular target: T1, human MOR signaling through GαoA (Homo sapiens, UniProt P35372); type: cell-based
T1 construct: host or cells: HEK 293T, transient

[3] = molecular target: T2, human MOR signaling through GαoB (Homo sapiens, UniProt P35372); type: cell-based
T2 construct: host or cells: HEK 293T, transient

human MOR = human MOR (Homo sapiens, UniProt P35372); experiment: [3H]naloxone competition binding, MOR-CHO cell membranes, low-affinity buffer; details: fold change of Ki, vehicle vs 10 μM BMS-986122
Description: Chinese hamster ovary cells stably expressing the human MOR (MOR-CHO; obtained from Dr. George Uhl, NIDA Intramural Research Program, Baltimore, MD) were cultured in 10 cm dishes in Dulbecco’s modified Eagle’s medium (DMEM) supplemented with 5% fetal bovine serum and 100 U/mL penicillin–streptomycin at 37 °C in a 10% CO2 atmosphere. Cell membranes were isolated and homogenized as previously described, and membrane protein concentrations were determined with bovine serum albumin as the control as previously described. Membranes were stored at −80 °C until use.
[^3H]­Naloxone was used at a final concentration of 1.0 nM, and nonspecific binding was measured using 10 μM unlabeled naloxone. Membranes were added last to the incubation tube. All assays were performed at 25 °C and terminated by rapid vacuum filtration through Whatman #32 glass fiber filters using a Brandel cell harvester (Biomedical Research and Development Laboratories Inc., Gaithersburg, MD) followed by three ice-cold washes with 50 mM Tris-HCl, pH 7.4. Samples were collected and counted in 2 mL of Ecoscint A scintillation fluid (National Diagnostics, Atlanta, GA) for 2 min each using a LS 6500 scintillation counter (Beckman Coulter Inc., Fullerton, CA).
For competition binding experiments, the specific binding of the radioligand in the absence of other competing compounds was set at 100%. The percent of control binding was calculated for increasing concentrations of the competing compounds. A three- or four-parameter logistic curve was fit to the data by using SigmaPlot 11 (Systat Software Inc., San Jose, CA). […] Ki values were calculated as described previously. Statistical differences between Ki values were calculated using a two-tailed Student’s t test. Receptor binding data were reported as the mean Ki value ± SEM from three separate experiments performed in triplicate.

[4] = molecular target: T3, human MOR signaling through Gαi2 (Homo sapiens, UniProt P35372); type: cell-based
T3 construct: host or cells: HEK 293T, transient

[5] = molecular target: T4, human MOR signaling through Gαi1 (Homo sapiens, UniProt P35372); type: cell-based
T4 construct: host or cells: HEK 293T, transient

[6] = molecular target: T5, human MOR signaling through Gαi3 (Homo sapiens, UniProt P35372); type: cell-based
T5 construct: host or cells: HEK 293T, transient

[7] = molecular target: T6, human MOR signaling through Gαz (Homo sapiens, UniProt P35372); type: cell-based
T6 construct: host or cells: HEK 293T, transient

[8] = molecular target: human mu opioid receptor (MOR) (human) (UniProt P35372)
[9] = molecular target: human mu opioid receptor (MOR) (human) (UniProt P35372); experiment: radioligand binding; competition with 1.0 nM [3H]naloxone on MOR-CHO cell membranes (50 ug membrane protein), in the presence of 10 uM BMS-986122; 60 min, 25 C; 50 mM Tris-HCl pH 7.4, 100 mM NaCl, 5 mM MgCl2, 1 mM EDTA, 1 mM DTT, 50 uM GDP (low-affinity buffer)
[10] = molecular target: T7, human MOR signaling through Gαz with RGS20 (Homo sapiens, UniProt P35372); experiment: nanoBRET assay, MOR signaling through Gαz with RGS20 (RGSz1) coexpression; type: cell-based; details: RGS20 coexpressed
T7 construct: host or cells: HEK 293T, transient

[11] = molecular target: T8, human MOR signaling through GαoA, GαoB and Gαi3 (Homo sapiens, UniProt P35372); experiment: TruPATH BRET2 assay in HEK 293T cells compared with nanoBRET; type: cell-based; details: GαoB and Gαi3, 10 μM BMS-986122, Student's t test
T8 construct: host or cells: HEK 293T, transient

[12] = molecular target: T9, MOR signaling through GαoB-i3ct (Homo sapiens, UniProt P35372); experiment: nanoBRET assay, MOR signaling through GαoB-i3ct chimera (data not shown); type: cell-based
T9 construct: expressed in transfected cells; host or cells: HEK 293T (inferred: same nanoBRET system)

[13] = molecular target: human mu opioid receptor (MOR) (human) (UniProt P35372); experiment: radioligand binding; competition with 1.0 nM [3H]naloxone on MOR-CHO cell membranes (50 ug membrane protein), vehicle; 60 min, 25 C; 50 mM Tris-HCl pH 7.4, 100 mM NaCl, 5 mM MgCl2, 1 mM EDTA, 1 mM DTT, 50 uM GDP (low-affinity buffer)

T3 sequence (P35372 whole entry): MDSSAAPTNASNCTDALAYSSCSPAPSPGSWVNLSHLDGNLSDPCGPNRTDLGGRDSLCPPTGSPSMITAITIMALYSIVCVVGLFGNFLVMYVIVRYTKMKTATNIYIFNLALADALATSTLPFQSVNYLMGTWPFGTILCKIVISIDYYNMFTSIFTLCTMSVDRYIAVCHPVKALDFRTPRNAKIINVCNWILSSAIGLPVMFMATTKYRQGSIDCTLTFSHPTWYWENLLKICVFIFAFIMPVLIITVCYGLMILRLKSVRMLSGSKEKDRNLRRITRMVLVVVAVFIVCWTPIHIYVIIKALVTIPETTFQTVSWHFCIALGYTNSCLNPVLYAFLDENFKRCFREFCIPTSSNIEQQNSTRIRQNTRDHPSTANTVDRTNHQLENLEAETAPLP
T3 sequence (P04899 2-355 partner limits assumed): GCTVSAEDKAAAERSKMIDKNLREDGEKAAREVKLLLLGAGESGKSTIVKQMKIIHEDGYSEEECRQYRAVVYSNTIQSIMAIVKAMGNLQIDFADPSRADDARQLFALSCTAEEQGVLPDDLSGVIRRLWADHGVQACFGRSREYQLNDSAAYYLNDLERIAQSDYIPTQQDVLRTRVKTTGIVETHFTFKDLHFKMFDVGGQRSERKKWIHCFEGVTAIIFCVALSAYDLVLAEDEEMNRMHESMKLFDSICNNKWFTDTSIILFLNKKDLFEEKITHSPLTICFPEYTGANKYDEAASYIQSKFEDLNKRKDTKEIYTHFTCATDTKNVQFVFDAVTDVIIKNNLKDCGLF
T4 sequence (P35372 whole entry): as the sequence (P35372 whole entry) above
T4 sequence (P63096 2-354 partner limits assumed): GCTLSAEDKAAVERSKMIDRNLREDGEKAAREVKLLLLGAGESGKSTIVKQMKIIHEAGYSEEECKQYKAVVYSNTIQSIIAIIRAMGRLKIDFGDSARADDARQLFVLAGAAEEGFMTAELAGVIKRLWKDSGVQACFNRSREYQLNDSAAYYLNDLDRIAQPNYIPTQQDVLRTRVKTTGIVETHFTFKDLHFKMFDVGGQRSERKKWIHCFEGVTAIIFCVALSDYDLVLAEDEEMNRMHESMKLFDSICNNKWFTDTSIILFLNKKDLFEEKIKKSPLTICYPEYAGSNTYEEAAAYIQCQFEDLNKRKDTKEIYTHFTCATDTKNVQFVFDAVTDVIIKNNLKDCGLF
Sequence of human mu opioid receptor (MOR) (human) (P35372 whole entry): as the sequence (P35372 whole entry) above
T1 sequence (P35372 whole entry): as above
T1 sequence (P09471 2-354 partner limits assumed): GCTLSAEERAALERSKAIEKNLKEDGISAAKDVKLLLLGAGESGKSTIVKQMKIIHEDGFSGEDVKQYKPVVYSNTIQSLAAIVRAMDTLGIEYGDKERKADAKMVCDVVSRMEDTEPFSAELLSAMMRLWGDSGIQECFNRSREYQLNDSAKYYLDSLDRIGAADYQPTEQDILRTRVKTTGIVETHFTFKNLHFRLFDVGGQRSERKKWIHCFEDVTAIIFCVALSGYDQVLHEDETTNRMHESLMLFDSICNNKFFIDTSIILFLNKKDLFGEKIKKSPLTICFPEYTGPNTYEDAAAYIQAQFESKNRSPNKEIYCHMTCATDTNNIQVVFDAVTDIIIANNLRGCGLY
T2 sequence (P35372 whole entry): as the sequence (P35372 whole entry) above
T2 sequence (P09471 2-354 isoform P09471-2 partner limits assumed): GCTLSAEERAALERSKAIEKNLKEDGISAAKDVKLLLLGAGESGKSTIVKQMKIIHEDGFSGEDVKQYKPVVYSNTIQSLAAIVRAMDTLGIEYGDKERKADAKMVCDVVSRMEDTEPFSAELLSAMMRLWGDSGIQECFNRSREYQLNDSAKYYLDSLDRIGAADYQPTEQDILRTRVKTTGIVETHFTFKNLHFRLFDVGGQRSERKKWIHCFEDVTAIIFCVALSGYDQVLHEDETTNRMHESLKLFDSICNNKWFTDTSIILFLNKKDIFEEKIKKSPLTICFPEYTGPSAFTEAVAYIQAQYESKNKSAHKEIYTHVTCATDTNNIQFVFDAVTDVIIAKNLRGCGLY
Sequence of human MOR (P35372 whole entry): as the sequence (P35372 whole entry) above
T5 sequence (P35372 whole entry): as above
T5 sequence (P08754 2-354 partner limits assumed): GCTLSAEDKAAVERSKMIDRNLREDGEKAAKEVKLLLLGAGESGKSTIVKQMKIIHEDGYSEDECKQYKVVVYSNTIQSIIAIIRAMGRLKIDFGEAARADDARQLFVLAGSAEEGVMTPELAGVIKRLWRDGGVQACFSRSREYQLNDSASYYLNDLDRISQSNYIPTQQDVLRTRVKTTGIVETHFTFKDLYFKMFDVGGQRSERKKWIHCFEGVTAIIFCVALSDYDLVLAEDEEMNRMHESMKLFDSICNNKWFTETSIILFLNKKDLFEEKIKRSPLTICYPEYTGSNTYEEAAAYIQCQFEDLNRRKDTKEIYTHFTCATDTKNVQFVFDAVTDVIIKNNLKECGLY
T6 sequence (P35372 whole entry): as the sequence (P35372 whole entry) above
T6 sequence (P19086 2-355 partner limits assumed): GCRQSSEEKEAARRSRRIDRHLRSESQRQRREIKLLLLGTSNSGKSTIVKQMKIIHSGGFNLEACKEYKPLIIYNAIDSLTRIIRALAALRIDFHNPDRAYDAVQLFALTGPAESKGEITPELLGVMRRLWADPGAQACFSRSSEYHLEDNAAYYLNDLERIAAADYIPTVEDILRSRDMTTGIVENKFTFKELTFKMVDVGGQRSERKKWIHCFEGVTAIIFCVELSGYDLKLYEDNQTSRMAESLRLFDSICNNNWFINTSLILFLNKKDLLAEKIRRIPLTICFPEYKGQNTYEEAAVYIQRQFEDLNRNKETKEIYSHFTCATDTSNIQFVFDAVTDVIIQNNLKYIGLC
T9 sequence (P35372 whole entry): as the sequence (P35372 whole entry) above
T8 sequence (P35372 whole entry): as above
T7 sequence (P35372 whole entry): as above
T7 sequence (P19086 2-355 partner limits assumed): as the sequence (P19086 2-355 partner limits assumed) above

Cc1ccccc1COc1ccc(C2C3=C(CC(C)(C)CC3=O)OC3=C2C(=O)CC(C)(C)C3)cc1 [BMS-986187]
ΔΔlog(τ)oB-i3 ([1]; 7-hydroxymitragnine as agonist, 10 μM PAM, relative transduction coefficients compared between Gαi3 and GαoB): 0.157

C[C@@H](NC(=O)[C@@H](N)Cc1ccc(O)cc1)C(=O)NCC(=O)N(C)[C@@H](Cc1ccccc1)C(=O)NCCO [DAMGO, [D-Ala 2, N-MePhe 4, Gly-ol]-enkephalin]
ΔpEC50 [2]: 0.667 ± 0.022
ΔpEC50 [3]: 0.791 ± 0.109
Ki (Veh)/Ki (BMS) (human MOR): 6.8 ****
Average maximal increase in potency (EC50) caused by BMS-986122 [1]: 4.5 fold
ΔpEC50 [4]: 0.712 ± 0.064
ΔpEC50 [5]: 0.596 ± 0.023
ΔpEC50 [6]: 0.467 ± 0.104
ΔpEC50 [7]: 0.529 ± 0.087

methionine-enkephalin (met-enkephalin) acetate (peptide)
EC50, nanoBRET G protein activation in HEK 293T cells, MOR signaling through Gαi1, vehicle [8]: 0.052 µM
EC50, nanoBRET G protein activation in HEK 293T cells, MOR signaling through Gαi1, with 10 μM BMS-986122 [8]: 0.01 µM
EC50, nanoBRET G protein activation in HEK 293T cells, MOR signaling through Gαi3, with 10 μM BMS-986122 [8]: 0.0087 µM
EC50, nanoBRET G protein activation in HEK 293T cells, MOR signaling through GαoA, vehicle [8]: 0.053 µM
EC50, nanoBRET G protein activation in HEK 293T cells, MOR signaling through GαoB, vehicle [8]: 0.053 µM
EC50, nanoBRET G protein activation in HEK 293T cells, MOR signaling through GαoB, with 10 μM BMS-986122 [8]: 0.014 µM
EC50, nanoBRET G protein activation in HEK 293T cells, MOR signaling through Gαz, with 10 μM BMS-986122 [8]: 0.017 µM
Ki [9]: 0.048 µM

COc1cc(Br)ccc1C1SCCN1S(=O)(=O)c1ccc(Cl)cc1 (stereo not drawn) [BMS-986124]
Antagonism of the effect of 3 μM BMS-986122 on the potency of DAMGO [4]: antagonized the effect of 3 μM BMS-986122, but not completely
Antagonism of the effect of 3 μM BMS-986187 on the potency of DAMGO [4]: partially block the effect of 3 μM BMS-986187

CC(C)=CCN1CCC2(C)c3cc(O)ccc3CC1C2C (single isomer, unassigned; (-)) [(−)-Pentazocine]
Emax [2]: 48 ± 2.2% and 88 ± 3.0%
Emax [3]: 74 ± 0.33% and 96 ± 2.6%
Ki (Veh)/Ki (BMS) (human MOR): 1.0 ns
Emax [4]: 35 ± 2.0% and 66 ± 4.3%
Emax [5]: 56 ± 1.4% and 105 ± 1.2%
Emax [6]: 70 ± 1.8% and 102 ± 1.8%
Emax [7]: 105 ± 1.8% and 110 ± 6.7%
Emax with RGS20 coexpression versus without [10]: dramatically reduced

CSCC[C@H](NC(=O)[C@H](Cc1ccccc1)NC(=O)CNC(=O)CNC(=O)[C@@H](N)Cc1ccc(O)cc1)C(=O)O [Met-Enkephalin, methionine-enkephalin]
Average maximal increase in potency (EC50) caused by BMS-986122 [1]: 3.8 fold

CC[C@@H]1CN2CC[C@@]3(O)C(=Nc4cccc(OC)c43)[C@@H]2C[C@@H]1/C(=C\OC)C(=O)OC [7-Hydroxymitragynine]
Ki (Veh)/Ki (BMS) (human MOR): 1.1 ns
Δlog(τ) in TruPATH compared with nanoBRET [11]: not statistically different
Emax [7]: 33 ± 3.0% and 65 ± 4.1%
Efficacy modulation by BMS-986122 [12]: reduced
Intrinsic efficacy [12]: increased substantially

[D-Ala 2, N-MePhe 4, Gly-ol]-enkephalin (DAMGO) acetate (peptide)
EC50, nanoBRET G protein activation in HEK 293T cells, MOR signaling through Gαi1, vehicle [8]: 0.058 µM
EC50, nanoBRET G protein activation in HEK 293T cells, MOR signaling through Gαi2, vehicle [8]: 0.046 µM
EC50, nanoBRET G protein activation in HEK 293T cells, MOR signaling through Gαi2, with 10 μM BMS-986122 [8]: 0.0091 µM
EC50, nanoBRET G protein activation in HEK 293T cells, MOR signaling through Gαi3, vehicle [8]: 0.024 µM
EC50, nanoBRET G protein activation in HEK 293T cells, MOR signaling through Gαi3, with 10 μM BMS-986122 [8]: 0.0073 µM
EC50, nanoBRET G protein activation in HEK 293T cells, MOR signaling through GαoA, with 10 μM BMS-986122 [8]: 0.01 µM
EC50, nanoBRET G protein activation in HEK 293T cells, MOR signaling through GαoB, vehicle [8]: 0.074 µM
EC50, nanoBRET G protein activation in HEK 293T cells, MOR signaling through GαoB, with 10 μM BMS-986122 [8]: 0.011 µM
EC50, nanoBRET G protein activation in HEK 293T cells, MOR signaling through Gαz, vehicle [8]: 0.01 µM
EC50, nanoBRET G protein activation in HEK 293T cells, MOR signaling through Gαz, with 10 μM BMS-986122 [8]: 0.0032 µM
Ki [9]: 0.035 µM
Ki [13]: 0.24 µM
